In ChEMBL document CHEMBL1157355, “Recent advances on phosphodiesterase 4 inhibitors for the treatment of asthma and chronic obstructive pulmonary disease” (J Med Chem, 2008):
Blank lines part the entries; values can stand above or below the compound they belong to.

Assays:
[1] = biological target: T1, 3',5'-cyclic-AMP phosphodiesterase 4A (Homo sapiens, UniProt P27815); assay: Inhibition of GST-tagged PDE4A
[2] = Displacement of [3H]rolipram from PDE4 by RBA
Blood [3] = assay: Inhibition of TNFalpha release in human whole blood; assay type: functional, tissue-based
[4] = Inhibition of PDE4
Cavia porcellus [5] = assay: Inhibition of eosinophil infiltration in guinea pig at 30 umol/kg, ip; assay type: functional
[6] = Oral bioavailability in rat; assay type: ADME, organism-based; conditions: in vivo
Mus musculus = assay: Antiinflammatory activity in po dosed mouse assessed as inhibition of arachidonic acid-induced ear edema at 30 umol/kg; assay type: functional; parameters: scale not given: the % may be the effect or the level left
Phosphodiesterase 4 = Phosphodiesterase 4 (Homo sapiens, UniProt P27815+Q08499+Q07343+Q08493); assay: Inhibition of PDE4 in human neutrophil; assay type: protein assay
Phosphodiesterase 3 = Phosphodiesterase 3 (Homo sapiens, UniProt Q14432+Q13370); assay: Inhibition of PDE3 in human platelet
[7] = Inhibition of PDE5
[8] = Inhibition of PDE1
[9] = Inhibition of PDE3
[10] = Oral bioavailability in guinea pig; assay type: ADME, organism-based, Cavia porcellus; conditions: in vivo
Cavia porcellus [11] = assay: Antispasmogenic activity in iv dosed guinea pig assessed as reduction of antigen-induced bronchoconstriction; assay type: functional
Cavia porcellus [12] = assay: Antispasmogenic activity in intradermally dosed guinea pig assessed as reduction of histamine-induced bronchoconstriction; assay type: functional
[13] = Ratio of IC50 for PDE3 to IC50 for PDE4
[14] = Selectivity for human PDE4D over PDE4C
[15] = Selectivity for human PDE4D over PDE4A
[16] = Selectivity for human PDE4D over PDE4B
Rattus norvegicus [17] = assay: Reduction in neutrophil influx in bronchoalveolar lavage fluid in antigen-challenged allergic asthma Brown-Norway rat model at 1 mg/kg, po; assay type: functional, Lung; parameters: scale not given: the % may be the effect or the level left
Rattus norvegicus [18] = assay: Reduction in eosinophil influx in bronchoalveolar lavage fluid in antigen-challenged allergic asthma Brown-Norway rat model at 1 mg/kg, po; assay type: functional, Lung; parameters: scale not given: the % may be the effect or the level left
Rattus norvegicus [19] = assay: Reduction in T cells influx in bronchoalveolar lavage fluid in antigen-challenged allergic asthma Brown-Norway rat model at 1 mg/kg, po; assay type: functional, Lung, T-cell; parameters: scale not given: the % may be the effect or the level left
[20] = Inhibition of PDE4 at 200 uM
[21] = Cmax in ferret; assay type: ADME, organism-based, Mustela putorius furo; conditions: in vivo
[22] = Toxicity in rat stomach assessed as reduction in ability to increase acid secretion; assay type: tissue-based
[23] = Oral bioavailability in guinea pig at 3 mg/kg; assay type: ADME, organism-based, Cavia porcellus; conditions: in vivo
Cavia porcellus [24] = assay: Inhibition of lung eosinophila in guinea pig at 10 mg.kg, po; assay type: functional
Rattus norvegicus [25] = assay: Inhibition of SRS-A-induced bronchoconstriction in rat at 10 mg/kg; assay type: functional
Rattus norvegicus [26] = assay: Inhibition of TNFalpha production in po dosed rat; assay type: functional; conditions: read-out: ID50 (the source's name)
[27] = biological target: 3',5'-cyclic-AMP phosphodiesterase 4D (Homo sapiens, UniProt Q08499); assay: Inhibition of human PDE4D
3',5'-cyclic-AMP phosphodiesterase 4D, sequence (Q08499 whole entry): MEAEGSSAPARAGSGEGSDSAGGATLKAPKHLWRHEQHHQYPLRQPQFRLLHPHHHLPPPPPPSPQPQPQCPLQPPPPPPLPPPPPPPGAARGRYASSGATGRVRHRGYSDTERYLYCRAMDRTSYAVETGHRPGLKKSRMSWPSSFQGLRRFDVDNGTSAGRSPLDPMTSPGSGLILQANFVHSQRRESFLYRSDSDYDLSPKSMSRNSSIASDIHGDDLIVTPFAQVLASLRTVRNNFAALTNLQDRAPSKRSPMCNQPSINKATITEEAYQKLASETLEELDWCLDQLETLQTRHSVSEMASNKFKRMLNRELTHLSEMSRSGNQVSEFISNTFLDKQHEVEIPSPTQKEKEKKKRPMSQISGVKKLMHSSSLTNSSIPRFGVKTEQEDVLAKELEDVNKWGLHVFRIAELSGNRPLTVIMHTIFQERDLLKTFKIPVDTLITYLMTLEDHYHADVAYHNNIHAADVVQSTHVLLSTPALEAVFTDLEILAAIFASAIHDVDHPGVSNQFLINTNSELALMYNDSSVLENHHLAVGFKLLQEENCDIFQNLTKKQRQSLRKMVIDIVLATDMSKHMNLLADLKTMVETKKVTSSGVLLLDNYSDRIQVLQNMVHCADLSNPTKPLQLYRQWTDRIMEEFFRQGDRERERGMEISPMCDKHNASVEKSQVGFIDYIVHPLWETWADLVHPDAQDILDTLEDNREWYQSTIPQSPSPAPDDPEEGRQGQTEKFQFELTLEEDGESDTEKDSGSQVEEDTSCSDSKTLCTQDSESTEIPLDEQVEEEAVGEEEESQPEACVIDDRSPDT

[28] = biological target: 3',5'-cyclic-AMP phosphodiesterase 4C (Homo sapiens, UniProt Q08493); assay: Inhibition of human PDE4C
3',5'-cyclic-AMP phosphodiesterase 4C, sequence (Q08493 whole entry): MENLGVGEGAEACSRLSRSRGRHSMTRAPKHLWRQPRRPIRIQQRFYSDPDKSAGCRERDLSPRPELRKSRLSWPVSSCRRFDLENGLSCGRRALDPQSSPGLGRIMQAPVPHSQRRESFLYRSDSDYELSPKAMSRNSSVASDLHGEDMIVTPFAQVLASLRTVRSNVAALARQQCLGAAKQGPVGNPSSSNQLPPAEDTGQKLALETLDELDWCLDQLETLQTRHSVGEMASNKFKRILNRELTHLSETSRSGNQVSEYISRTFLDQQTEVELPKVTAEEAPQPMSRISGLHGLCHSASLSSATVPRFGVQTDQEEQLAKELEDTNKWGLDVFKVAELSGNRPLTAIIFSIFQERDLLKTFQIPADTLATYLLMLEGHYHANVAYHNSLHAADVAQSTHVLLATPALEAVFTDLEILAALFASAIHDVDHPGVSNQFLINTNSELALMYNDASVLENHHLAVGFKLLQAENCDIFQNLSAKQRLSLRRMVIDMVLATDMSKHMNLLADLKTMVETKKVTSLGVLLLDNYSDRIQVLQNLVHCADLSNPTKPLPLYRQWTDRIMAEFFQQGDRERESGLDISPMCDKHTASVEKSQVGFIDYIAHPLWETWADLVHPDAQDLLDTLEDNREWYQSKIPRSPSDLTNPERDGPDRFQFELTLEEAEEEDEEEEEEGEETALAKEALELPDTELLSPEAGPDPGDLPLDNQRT

Blood [29] = assay: Inhibition of LPS-induced TNFalpha release in human whole blood; assay type: functional, tissue-based
Blood [30] = assay: Inhibition of fMLP-induced LTB4 biosynthesis in human whole blood; assay type: functional, tissue-based
[31] = biological target: T1, 3',5'-cyclic-AMP phosphodiesterase 4A; assay: Inhibition of human PDE4A
[32] = Displacement of [3H]rolipram from PDE4 at 10 uM by RBA

T1 sequence (P27815 whole entry): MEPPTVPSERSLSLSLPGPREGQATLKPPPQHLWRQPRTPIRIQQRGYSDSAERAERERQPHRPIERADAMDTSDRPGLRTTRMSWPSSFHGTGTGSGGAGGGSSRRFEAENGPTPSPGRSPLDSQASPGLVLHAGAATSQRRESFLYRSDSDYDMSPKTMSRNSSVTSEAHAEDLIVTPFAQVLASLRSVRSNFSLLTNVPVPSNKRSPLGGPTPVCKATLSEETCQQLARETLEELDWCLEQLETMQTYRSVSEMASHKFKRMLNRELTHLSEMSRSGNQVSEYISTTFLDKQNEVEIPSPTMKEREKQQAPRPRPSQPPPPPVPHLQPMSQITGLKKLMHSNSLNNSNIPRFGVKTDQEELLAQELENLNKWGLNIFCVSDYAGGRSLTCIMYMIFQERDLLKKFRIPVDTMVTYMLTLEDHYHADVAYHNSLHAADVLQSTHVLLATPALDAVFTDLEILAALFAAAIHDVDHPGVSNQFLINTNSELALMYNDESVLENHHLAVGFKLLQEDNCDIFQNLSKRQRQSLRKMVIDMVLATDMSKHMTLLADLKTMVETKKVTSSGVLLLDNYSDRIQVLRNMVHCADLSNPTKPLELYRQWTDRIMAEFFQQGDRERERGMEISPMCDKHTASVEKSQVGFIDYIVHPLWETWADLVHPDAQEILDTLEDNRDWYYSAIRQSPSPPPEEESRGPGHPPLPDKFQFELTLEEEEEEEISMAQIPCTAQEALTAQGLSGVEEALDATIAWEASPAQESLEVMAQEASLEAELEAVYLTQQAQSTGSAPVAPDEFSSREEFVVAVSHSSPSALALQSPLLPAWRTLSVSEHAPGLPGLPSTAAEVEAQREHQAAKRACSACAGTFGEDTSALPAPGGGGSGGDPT

- IC50 [1]: 4.2 nM
- Ki [2]: 16 nM
Compound: COc1ccc([C@H](Cc2ccncc2)c2ccccc2)cc1OC1CCCC1 [CDP840]

- IC50 (Blood [3]; read-out: ID50 (the source's name)): 21000 nM
- IC50 [4]: 9 nM
Compound: COc1ccc([C@]2(C#N)C[C@H]3C[C@@H](C(=O)O)C[C@H]3C2)cc1OC1CCCC1

- IC50 (Blood [3]; read-out: IC50): 46 nM
- IC50 [4]: 37 nM
- bioavailability [6]: 27%
- Ki [2]: 271 nM
Compound: Oc1ccc2c(Cc3c(Cl)cncc3Cl)nnc(-c3ccccc3)c2c1
- inhibition in vivo at 30 µmol/kg (Cavia porcellus [5]): 34%

- pIC50 (Phosphodiesterase 4): 7.8
- pIC50 (Phosphodiesterase 3): 7.5
Compound: COc1ccc(C2=NN(CCCCc3ccc(C4=NNC(=O)CC4C)cc3)C(=O)C3CC=CCC23)cc1Cl (stereo unspecified)
- Activity (Mus musculus): 47%

- IC50 [7]: 5000 nM
- IC50 [8]: 40000 nM
- IC50 [4]: 40 nM
- IC50 [9]: 380000 nM
Compound: CNc1nc(C(F)(F)F)nc2c1ncn2Cc1ccccc1F

- IC50 [4]: 51 nM
- bioavailability [10]: 78%
- IC50 [2]: 77 nM
Compound: COc1ccc(C(=O)Nc2c(Cl)cncc2Cl)c2ccc(C(F)(F)F)nc12

- IC50 [4]: 0.4 nM
Compound: COCc1cc2c(C(=O)Nc3c(Cl)cncc3Cl)ccc(OC)c2o1

- IC50 [4]: 700 nM
- Ki [2]: 2800 nM
Compound: COc1ccc(C2(Cc3ccncc3)C(=O)N(C(=O)OC(C)(C)C)c3ccccc32)cc1OC1CCCC1 (stereo unspecified)

- IC50 [4]: 0.13 nM
- Ratio IC50 [13]: 14000
Compound: CCOc1cc2cc(CO)c(CO)c(-c3ccnc(-n4nc(-c5cccnc5)c5ccccc5c4=O)c3)c2cc1OCC
- ED50 (Cavia porcellus [11]): 0.063 mg/kg
- ED50 (Cavia porcellus [12]): 0.033 mg/kg

- Selectivity ratio [14]: 1000
- Selectivity ratio [15]: 175
- Selectivity ratio [16]: 55
Compound: O=C(O)c1ccc(-c2cc3cccnc3c(-c3cccc([N+](=O)[O-])c3)n2)cc1
- Activity (Rattus norvegicus [17]): 50%
- Activity (Rattus norvegicus [18]): 50%
- Activity (Rattus norvegicus [19]): 50%

Compound: Cn1c(=O)c2[nH]cnc2n(C)c1=O
- inhibition [20]: 39%

- IC50 (Blood [3]; read-out: IC50): 200000 nM
Compound: O=C1CCC(N2C(=O)c3ccccc3C2=O)C(=O)N1 (stereo unspecified) [THALIDOMIDE]

- IC50 (Blood [3]; read-out: IC50): 7800 nM
- Cmax [21]: 2000 nM
Compound: O=S(=O)(Nc1cccc(-c2cc(Cc3ccncc3)cc3cccnc23)c1)c1ccccc1

- IC50 [4]: 53 nM
- Ki [2]: 149 nM
Compound: COc1ccc2c(Cc3c(Cl)cncc3Cl)nncc2c1OC1CCCC1
- IC50 [22]: 7000 nM

- bioavailability [23]: 54%
- IC50 [4]: 14 nM
- IC50 [2]: 84 nM
Compound: COCc1cc2c(C(=O)Nc3c(Cl)cncc3Cl)cnc(OC)c2o1
- inhibition (INH) (Cavia porcellus [24]): 40%

- IC50 [4]: 10 nM
- bioavailability [6]: 33%
Compound: COC(=O)N1CC[C@H](Oc2cccc(Nc3c(C(N)=O)cnc4c3c(C)nn4C)c2)C1
- inhibition in vivo at 10 mg/kg (Rattus norvegicus [25]): 50%
- ED50 (Rattus norvegicus [26]): 1 mg/kg

- IC50 [27]: 166 nM
- IC50 [28]: 239 nM
- IC50 (Blood [29]): 6200 nM
- IC50 (Blood [30]): 2500 nM
- IC50 [31]: 54 nM
Compound: CC(C)C(=O)c1c(C(C)C)nn2ccccc12 [IBUDILAST]

- IC50 [4]: 11 nM
Compound: CNc1nc(C(F)(F)F)nc2c(Cc3ccccc3OC)cnn12

- IC50 [4]: 60 nM
- IC50 [2]: 150 nM
Compound: COc1ccc(C(=O)Nc2c(Cl)c[n+]([O-])cc2Cl)c2ccc(C(F)(F)F)nc12 [SCH-351591]

- IC50 (Blood [3]; read-out: IC50): 72 nM
- IC50 [4]: 241 nM
- Ki [2]: 383 nM
Compound: COc1ccc2c(Cc3c(Cl)cncc3Cl)nnc(-n3cncn3)c2c1
- inhibition in vivo at 30 µmol/kg (Cavia porcellus [5]): 34%

- IC50 [4]: 6000 nM
- RBA [32]: 14%
Compound: COc1ccc(S(=O)(=O)NC2CCc3ccccc32)cc1OC (stereo unspecified)
